The text below walks through data of article PMC6009876, “Introduction of pyrrolidineoxy or piperidineamino group at the 4-position of quinazoline leading to novel quinazoline-based phosphoinositide 3-kinase delta (PI3Kδ) inhibitors” (Journal of Enzyme Inhibition and Medicinal Chemistry, 2018).

Where two headings read alike, the source gives them in different places.

Assay [1] deals with T1, PI3Kδ (Homo sapiens, UniProt O00329). Kind of assay: PI3Kδ inhibitory activity. The settings on record: mean of at least two experiments; for inhibition at 0.1 µM: at the concentration of 100 nM. In kind it is biochemical.
T1 sequence (O00329 whole entry, canonical isoform): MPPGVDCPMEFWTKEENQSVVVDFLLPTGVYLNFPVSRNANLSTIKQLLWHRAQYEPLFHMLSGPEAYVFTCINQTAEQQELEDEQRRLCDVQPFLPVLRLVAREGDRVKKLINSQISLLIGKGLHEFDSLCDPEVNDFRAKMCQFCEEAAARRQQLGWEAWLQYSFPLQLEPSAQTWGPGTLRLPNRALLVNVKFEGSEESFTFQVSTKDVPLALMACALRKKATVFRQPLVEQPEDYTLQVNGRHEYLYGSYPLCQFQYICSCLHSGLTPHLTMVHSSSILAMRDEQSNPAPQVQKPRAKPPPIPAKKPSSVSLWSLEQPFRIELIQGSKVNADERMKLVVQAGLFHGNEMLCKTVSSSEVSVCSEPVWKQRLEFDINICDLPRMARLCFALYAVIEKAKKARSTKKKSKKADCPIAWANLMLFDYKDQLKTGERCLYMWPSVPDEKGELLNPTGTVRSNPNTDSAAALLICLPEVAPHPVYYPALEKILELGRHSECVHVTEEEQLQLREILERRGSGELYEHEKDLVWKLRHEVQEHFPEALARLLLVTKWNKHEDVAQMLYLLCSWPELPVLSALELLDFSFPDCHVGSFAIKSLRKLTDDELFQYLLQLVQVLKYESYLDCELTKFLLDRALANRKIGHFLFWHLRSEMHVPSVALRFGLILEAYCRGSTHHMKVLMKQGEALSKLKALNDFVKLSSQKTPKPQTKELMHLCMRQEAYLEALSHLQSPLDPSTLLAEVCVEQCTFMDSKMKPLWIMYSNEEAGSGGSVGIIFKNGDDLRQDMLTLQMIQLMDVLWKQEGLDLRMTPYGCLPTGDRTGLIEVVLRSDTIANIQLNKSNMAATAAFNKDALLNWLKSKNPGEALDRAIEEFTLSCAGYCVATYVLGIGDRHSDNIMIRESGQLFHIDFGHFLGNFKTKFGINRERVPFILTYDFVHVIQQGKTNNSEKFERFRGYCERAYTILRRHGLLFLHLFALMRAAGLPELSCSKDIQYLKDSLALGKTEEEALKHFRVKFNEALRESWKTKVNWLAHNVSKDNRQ
T1 sequence (P27986 whole entry partner, canonical isoform): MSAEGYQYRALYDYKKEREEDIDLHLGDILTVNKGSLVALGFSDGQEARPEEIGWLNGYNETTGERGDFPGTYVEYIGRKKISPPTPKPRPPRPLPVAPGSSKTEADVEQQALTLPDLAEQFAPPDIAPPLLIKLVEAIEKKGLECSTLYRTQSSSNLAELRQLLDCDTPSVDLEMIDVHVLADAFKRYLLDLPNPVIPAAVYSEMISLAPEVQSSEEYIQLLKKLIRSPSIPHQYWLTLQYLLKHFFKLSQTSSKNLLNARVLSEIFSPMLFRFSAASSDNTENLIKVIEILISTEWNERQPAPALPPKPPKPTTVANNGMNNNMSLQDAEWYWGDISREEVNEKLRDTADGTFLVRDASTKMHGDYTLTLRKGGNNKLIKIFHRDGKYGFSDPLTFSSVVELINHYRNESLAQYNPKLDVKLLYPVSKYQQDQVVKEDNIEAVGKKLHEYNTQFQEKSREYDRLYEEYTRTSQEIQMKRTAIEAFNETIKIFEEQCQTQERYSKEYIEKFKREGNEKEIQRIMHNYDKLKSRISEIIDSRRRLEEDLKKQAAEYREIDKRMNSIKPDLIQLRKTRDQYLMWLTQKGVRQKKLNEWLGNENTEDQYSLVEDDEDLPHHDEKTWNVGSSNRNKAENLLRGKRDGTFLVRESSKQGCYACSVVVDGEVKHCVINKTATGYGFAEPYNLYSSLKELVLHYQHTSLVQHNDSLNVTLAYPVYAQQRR
In assay [2] the target is PI3Kα (Homo sapiens, UniProt P42336). Kind of assay: PI3K isoform selectivity, p110α. It counts as biochemical. Particulars: for IC50: mean of at least two experiments.
Sequence of PI3Kα (P42336 whole entry, species assumed, canonical isoform): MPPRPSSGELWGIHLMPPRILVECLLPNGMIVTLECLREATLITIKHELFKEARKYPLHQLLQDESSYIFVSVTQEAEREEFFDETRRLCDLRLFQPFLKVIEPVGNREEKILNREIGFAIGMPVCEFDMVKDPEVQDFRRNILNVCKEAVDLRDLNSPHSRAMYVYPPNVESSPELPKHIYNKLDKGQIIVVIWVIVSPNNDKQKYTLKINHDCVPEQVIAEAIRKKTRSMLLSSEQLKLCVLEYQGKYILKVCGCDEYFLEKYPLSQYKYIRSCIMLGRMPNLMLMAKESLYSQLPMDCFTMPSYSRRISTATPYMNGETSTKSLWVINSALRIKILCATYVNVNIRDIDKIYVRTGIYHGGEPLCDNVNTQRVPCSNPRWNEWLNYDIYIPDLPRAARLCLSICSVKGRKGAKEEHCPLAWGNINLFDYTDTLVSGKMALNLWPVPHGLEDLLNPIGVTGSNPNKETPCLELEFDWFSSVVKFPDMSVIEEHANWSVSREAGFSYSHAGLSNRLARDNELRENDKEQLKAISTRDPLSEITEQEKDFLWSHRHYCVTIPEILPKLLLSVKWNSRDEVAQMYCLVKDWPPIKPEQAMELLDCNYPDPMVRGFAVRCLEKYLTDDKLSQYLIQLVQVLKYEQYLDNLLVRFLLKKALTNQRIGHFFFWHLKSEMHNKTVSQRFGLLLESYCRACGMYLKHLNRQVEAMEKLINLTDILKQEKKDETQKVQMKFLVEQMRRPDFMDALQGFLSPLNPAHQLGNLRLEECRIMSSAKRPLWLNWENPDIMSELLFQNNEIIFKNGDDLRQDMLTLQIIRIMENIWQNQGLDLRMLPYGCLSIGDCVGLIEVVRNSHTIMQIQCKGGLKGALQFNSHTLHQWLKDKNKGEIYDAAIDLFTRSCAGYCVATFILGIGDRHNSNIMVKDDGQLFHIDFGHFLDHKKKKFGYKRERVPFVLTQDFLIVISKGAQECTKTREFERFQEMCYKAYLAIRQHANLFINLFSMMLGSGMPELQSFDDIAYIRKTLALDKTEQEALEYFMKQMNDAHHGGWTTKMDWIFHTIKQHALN
Sequence of PI3Kα (P27986 whole entry partner, species assumed, canonical isoform): as the sequence (P27986 whole entry partner, canonical isoform) above
The target in assay [3] is PI3Kβ (Homo sapiens, UniProt P42338). The assay can be described thus: PI3K isoform selectivity, p110β. In kind it is biochemical. Particulars: for IC50: mean of at least two experiments.
Sequence of PI3Kβ (P42338 whole entry, species assumed, canonical isoform): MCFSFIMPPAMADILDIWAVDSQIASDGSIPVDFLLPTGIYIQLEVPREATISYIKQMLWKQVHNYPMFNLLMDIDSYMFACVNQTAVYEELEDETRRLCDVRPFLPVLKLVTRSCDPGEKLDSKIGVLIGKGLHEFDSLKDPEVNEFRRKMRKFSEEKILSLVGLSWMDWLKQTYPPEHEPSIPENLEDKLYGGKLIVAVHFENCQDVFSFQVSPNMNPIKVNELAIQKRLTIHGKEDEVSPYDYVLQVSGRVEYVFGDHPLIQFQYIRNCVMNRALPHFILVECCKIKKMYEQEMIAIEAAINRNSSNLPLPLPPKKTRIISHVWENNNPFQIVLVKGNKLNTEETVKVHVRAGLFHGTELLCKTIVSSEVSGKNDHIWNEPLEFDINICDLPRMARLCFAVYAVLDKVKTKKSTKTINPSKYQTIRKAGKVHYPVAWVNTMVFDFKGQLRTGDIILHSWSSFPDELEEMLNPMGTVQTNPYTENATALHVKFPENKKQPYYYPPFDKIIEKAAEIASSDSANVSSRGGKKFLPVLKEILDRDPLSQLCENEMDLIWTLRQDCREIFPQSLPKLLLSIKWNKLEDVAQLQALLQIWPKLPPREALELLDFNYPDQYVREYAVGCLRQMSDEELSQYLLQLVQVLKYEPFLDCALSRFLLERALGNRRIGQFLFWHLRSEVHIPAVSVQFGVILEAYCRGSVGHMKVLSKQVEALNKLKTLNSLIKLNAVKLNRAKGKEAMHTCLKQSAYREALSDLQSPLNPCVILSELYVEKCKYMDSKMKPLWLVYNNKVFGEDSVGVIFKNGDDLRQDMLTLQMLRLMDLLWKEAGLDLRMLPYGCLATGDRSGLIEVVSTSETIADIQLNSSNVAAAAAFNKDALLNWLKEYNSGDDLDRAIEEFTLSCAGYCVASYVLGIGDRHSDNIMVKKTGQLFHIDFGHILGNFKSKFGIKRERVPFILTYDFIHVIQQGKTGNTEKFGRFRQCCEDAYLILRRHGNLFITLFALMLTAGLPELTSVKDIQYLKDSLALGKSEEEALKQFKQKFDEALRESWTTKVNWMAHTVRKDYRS
Sequence of PI3Kβ (P27986 whole entry partner, species assumed, canonical isoform): as the sequence (P27986 whole entry partner, canonical isoform) above
Assay [4] deals with PI3Kγ (Homo sapiens, UniProt P48736). Kind of assay: PI3K isoform selectivity, p110γ. In kind it is biochemical. The settings on record: for IC50: mean of at least two experiments.
Sequence of PI3Kγ (P48736 whole entry, species assumed, canonical isoform): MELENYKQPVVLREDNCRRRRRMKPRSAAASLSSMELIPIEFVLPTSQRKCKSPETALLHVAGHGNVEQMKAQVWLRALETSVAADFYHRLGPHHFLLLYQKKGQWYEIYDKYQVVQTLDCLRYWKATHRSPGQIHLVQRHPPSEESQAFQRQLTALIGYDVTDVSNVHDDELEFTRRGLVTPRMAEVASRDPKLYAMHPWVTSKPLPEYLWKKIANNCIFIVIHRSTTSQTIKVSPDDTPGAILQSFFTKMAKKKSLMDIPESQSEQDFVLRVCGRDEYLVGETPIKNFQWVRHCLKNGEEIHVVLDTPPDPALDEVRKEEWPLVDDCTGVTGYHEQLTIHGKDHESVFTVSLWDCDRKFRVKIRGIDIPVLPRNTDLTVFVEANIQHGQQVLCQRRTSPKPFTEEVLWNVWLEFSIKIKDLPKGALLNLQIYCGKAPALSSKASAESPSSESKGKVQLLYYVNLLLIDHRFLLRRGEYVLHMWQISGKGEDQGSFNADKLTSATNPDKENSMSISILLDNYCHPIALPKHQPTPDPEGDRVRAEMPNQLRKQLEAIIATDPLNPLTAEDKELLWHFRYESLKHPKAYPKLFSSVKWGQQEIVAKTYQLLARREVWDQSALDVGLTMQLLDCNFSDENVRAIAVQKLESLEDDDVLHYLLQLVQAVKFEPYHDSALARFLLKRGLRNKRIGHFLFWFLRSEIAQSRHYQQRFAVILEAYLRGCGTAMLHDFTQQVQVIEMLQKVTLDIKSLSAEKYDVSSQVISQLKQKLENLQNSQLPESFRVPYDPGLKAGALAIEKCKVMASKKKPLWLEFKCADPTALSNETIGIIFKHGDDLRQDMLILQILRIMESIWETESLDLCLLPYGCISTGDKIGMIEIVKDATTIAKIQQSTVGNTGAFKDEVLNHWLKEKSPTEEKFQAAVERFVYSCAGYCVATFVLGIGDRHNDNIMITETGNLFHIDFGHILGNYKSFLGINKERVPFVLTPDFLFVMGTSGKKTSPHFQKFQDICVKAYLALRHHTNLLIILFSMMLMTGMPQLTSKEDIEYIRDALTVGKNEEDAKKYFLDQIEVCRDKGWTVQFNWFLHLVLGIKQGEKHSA
The subject of assay [5] is Ramos. The assay can be described thus: Anti-proliferative activity, MTT reduction method. In kind it is cell-based. Particulars: Homo sapiens, mean of at least two experiments.
The subject of assay [6] is Raji. The assay can be described thus: Anti-proliferative activity, MTT reduction method. In kind it is cell-based. The settings on record: Homo sapiens, mean of at least two experiments. (Tetrazolium dyes change colour on reduction, which living cells bring about.)
Assay [7] concerns RPMI-8226. The assay can be described thus: Anti-proliferative activity, MTT reduction method. Particulars: Homo sapiens, mean of at least two experiments. In kind it is cell-based.
In assay [8] the test system is SU-DHL-6. Kind of assay: Anti-proliferative activity, CCK-8 method. The settings on record: Homo sapiens, mean of at least two experiments. It counts as cell-based.
Assay [9] concerns the target T1, PI3Kδ. The settings on record: cited from earlier work.
The mark [10] stands for this setting: Table 3 isoform selectivity, read-out: p110δ IC50.

Broadly, the IC50 is the concentration at which inhibition is half-maximal. A word on the inhibition: it is the share of the control response that was lost under treatment. Higher therefore signals a response far below the control. In the case of `COc1ccc(-c2ccc3ncnc(N[C@H]4CCCN(C(=O)C5CC5)C4)c3c2)cn1` [Compound 14b], the IC50 was 3 nM in [1] (setting [10]); 3 nM in [1] (read-out: PI3Kδ IC50); 36.6 nM in assay [2]; 317 nM in assay [3]; 104 nM in assay [4]; 1340 nM in assay [5]. Also, the IC50 in [6] worked out at 810 nM; in [7], 8660 nM; in assay [8] it was 1040 nM. The inhibition at 0.1 µM in [1] was determined as 94%. Moreover, in assay [2], the “PI3Kδ selectivity over PI3Kα” value is 12 fold. The “PI3Kδ selectivity over PI3Kβ” value in assay [3] was 105 fold. Besides, the “PI3Kδ selectivity over PI3Kγ” value in assay [4] stood at 34 fold.

Turning to `COc1ccc(-c2ccc3ncnc(O[C@H]4CCN(C(=O)C(C)(C)C)C4)c3c2)cn1` [Compound 12e], the inhibition at 0.1 µM in [1] amounted to 53%.

Regarding `C[C@H](Nc1nc(N)nc(N)c1C#N)c1nc2cccc(F)c2c(=O)n1-c1cc(F)cc(F)c1` [Compound 3], the IC50 in [9] (idelalisib-derived analogues) is 2.2 nM.

The molecule `CC[C@H](Nc1ncnc2[nH]cnc12)c1nc2cccc(F)c2c(=O)n1-c1ccccc1` [Compound 1, idelalisib, reference compound] registered an inhibition at 0.1 µM in assay [1] of 96%. For the same molecule, the IC50 in assay [5] is > 10000 nM; in assay [6], 9950 nM; in assay [7] it was 5490 nM; in assay [8], 650 nM.

On to `COc1ccc(-c2ccc3ncnc(O[C@H]4CCN(C(=O)OC(C)(C)C)C4)c3c2)cn1` [Compound 12a], for which testing at 0.1 µM in assay [1] gave an inhibition of 79%.

In [1], `COc1ccc(-c2ccc3ncnc(NC4CCN(C(=O)OC(C)(C)C)CC4)c3c2)cn1` [Compound 16a] gave an inhibition at 0.1 µM of 72%.

Turning to `COc1ccc(-c2ccc3ncnc(NC4CCN(C(=O)C5CC5)CC4)c3c2)cn1` [Compound 16b], in [1], at 0.1 µM the inhibition was 70%.

Regarding `COc1ccc(-c2ccc3ncnc(N[C@H]4CCCN(C(=O)C5CCCC5)C4)c3c2)cn1` [Compound 14d], the inhibition at 0.1 µM in assay [1] is 91%. In addition, the IC50 in assay [1] (read-out: PI3Kδ IC50) is 8.7 nM.

In the case of `COc1ccc(-c2ccc3ncnc(O[C@H]4CCN(C(=O)C5CCOCC5)C4)c3c2)cn1` [Compound 12d], the IC50 in assay [1] (setting [10]) stood at 4.9 nM; in [1] (read-out: PI3Kδ IC50), 4.9 nM; in assay [2], 50.4 nM; in assay [3], 592 nM; in assay [4] it was 468 nM; in [5], 1340 nM. In addition, the IC50 in [6] turned out to be 9810 nM; in [7], 440 nM; in assay [8], 3230 nM. This molecule returned an inhibition at 0.1 µM in [1] of 98%. Further, in assay [2], the “PI3Kδ selectivity over PI3Kα” value is listed as 11 fold. Further, the “PI3Kδ selectivity over PI3Kβ” value in assay [3] came to 131 fold. For the same molecule, the “PI3Kδ selectivity over PI3Kγ” value in [4] is on record as 103 fold.

As for `COc1ccc(-c2ccc3ncnc(N[C@H]4CCCN(C(=O)C5CCC5)C4)c3c2)cn1` [Compound 14c], the IC50 worked out at 3.9 nM in assay [1] (setting [10]); 3.9 nM in assay [1] (read-out: PI3Kδ IC50); 58.9 nM in assay [2]; 376 nM in assay [3]; 121 nM in assay [4]; 1490 nM in assay [8]. The molecule also came in with an inhibition at 0.1 µM in assay [1] of 91%. Also, in [2], the “PI3Kδ selectivity over PI3Kα” value was 15 fold. In addition, the “PI3Kδ selectivity over PI3Kβ” value in [3] is 96 fold. Besides, the “PI3Kδ selectivity over PI3Kγ” value in [4] is recorded as 31 fold.

Regarding `COc1ccc(-c2ccc3ncnc(N[C@H]4CCCN(C(=O)OC(C)(C)C)C4)c3c2)cn1` [Compound 14a], in assay [1], testing at 0.1 µM gave an inhibition of 51%.

Regarding `COc1ccc(-c2ccc3ncnc(N[C@H]4CCCN(C(=O)C5CCOCC5)C4)c3c2)cn1` [Compound 14e], the inhibition at 0.1 µM in [1] turned out to be 88%. In addition, the IC50 in assay [1] (read-out: PI3Kδ IC50) amounted to 5.2 nM.

For the molecule `COc1ccc(-c2ccc3ncnc(NC4CCN(C(=O)C5CCOCC5)CC4)c3c2)cn1` [Compound 16c], 0.1 µM produced 48% inhibition in [1].

In assay [1], `COc1ccc(-c2ccc3ncnc(N[C@H]4CCCN(C(=O)C(C)(C)C)C4)c3c2)cn1` [Compound 14f] showed an inhibition at 0.1 µM of 54%.

Take `COc1ccc(-c2ccc3ncnc(O[C@H]4CCN(C(=O)C5CC5)C4)c3c2)cn1` [Compound 12b]: the inhibition at 0.1 µM in assay [1] worked out at 90%. Besides, in assay [1] (read-out: PI3Kδ IC50), the IC50 is 9.3 nM.

Take `O=C(CCCCCCC(=O)Nc1ccccc1)NO` [SAHA, vorinostat, reference compound]: the IC50 in assay [7] was found to be 660 nM.

As for `COc1ccc(-c2ccc3ncnc(O[C@H]4CCN(C(=O)C5CCC5)C4)c3c2)cn1` [Compound 12c], the inhibition at 0.1 µM in assay [1] came out at 96%. Besides, the IC50 in assay [1] (read-out: PI3Kδ IC50) was determined as 6.1 nM.

For the molecule `COc1ncc(-c2ccc3ncnc(Nc4cccc(C(=O)N5CCOCC5)c4)c3c2)cc1C#N` [Compound 8], the IC50 in assay [9] (4-anilinequinazoline) was 9.3 nM.
